24 molecules from patent EP0322133A1, “Quinazoline derivatives” (SmithKline Beecham Intercredit B.V., priority 1987, dated 1989) can be followed below.

Structures can show the parent of a compound that is named as a salt.

The first assay has as its system pentagastrin stimulated gastric acid secretion. The assay can be described thus: Rat lumen perfused stomach (modified Ghosh and Schild procedure). Format: in vivo. The following applies: i.v. administration. The source says:
Using a modification of the procedure described by Ghosh and Schild (Br. J. Pharmacology, 13, 54, 1958), the compounds of the following Examples were found on i.v. administration at a concentration of 10µmole/kg to cause an inhibition of pentagastrin stimulated gastric acid secretion as indicated in the following Table.
With “2-phenylethylamino-4-(2-methylphenylamino)quinazoline [Example 16]”, the “Rat G.S. % inhibition @ 10µmole/kg” value is reported as 31%.

Staying with this assay, now noted: iv, i.v. administration, 10µmole/kg, read-out: Rat G.S. % inhibition @ 10µmole/kg.
Turning to `COc1cccc2c(Nc3ccccc3C)nc(N)nc12` [Example 1, 2-amino-8-methoxy-4-(2-methylphenylamino)quinazoline], the inhibition at 10 µmol/kg stood at 60%.

Consider `COc1cccc2c(NCc3ccccc3)nc(N)nc12` [Example 2, 2-amino-8-methoxy-4-benzylaminoquinazoline], for which the inhibition at 10 µmol/kg was 25%. On the same count and under the same terms, as for `COc1ccc(Nc2nc(N)nc3c(OC)cccc23)c(C)c1` [Example 3, 2-amino-8-methoxy-4-(2-methyl-4-methoxyphenylamino)quinazoline], the figure is 16%; as for `COc1cccc2c(NCc3ccccc3C)nc(N)nc12` [Example 4, 2-amino-8-methoxy-4-(2-methylbenzylamino)quinazoline], 37%; as for `COc1cccc2c(Nc3ccccc3C)nc(N(C)C)nc12` [Example 5, 2-dimethylamino-8-methoxy-4-(2-methylphenylamino)quinazoline], 37%.

For `Cc1ccccc1Nc1nc(N)nc2c(C)cccc12` [Example 6, 2-amino-8-methyl-4-(2-methylphenylamino)quinazoline], the inhibition at 10 µmol/kg stood at 48%. For `Cc1ccccc1Nc1nc(N)nc2ccccc12` [Example 7, 2-amino-4-(2-methylphenylamino)quinazoline], the inhibition at 10 µmol/kg was 20%. Take `Cc1ccccc1Nc1nc(N2CCCC2)nc2ccccc12` [Example 8, 2-pyrrolidino-4-(2-methylphenylamino)quinazoline]: the inhibition at 10 µmol/kg was 17%. On the same count and under the same terms, for `CCc1ccc2nc(N)nc(Nc3ccccc3C)c2c1` [Example 11, 2-amino-4-(2-methylphenylamino)-6-ethylquinazoline] the value was 28%; for `CNc1nc(Nc2ccccc2C)c2cccc(OC)c2n1` [Example 13, 2-methylamino-8-methoxy-4-(2-methylphenylamino)quinazoline], 20%; for `COc1cccc2c(Nc3ccccc3C)nc(N3CCCC3)nc12` [Example 15, 2-pyrrolidino-8-methoxy-4-(2-methylphenylamino)quinazoline], 31%.

As to `COc1ccccc1Nc1nc(N)nc2c(OC)cccc12` [Example 18, 2-amino-8-methoxy-4-(2-methoxyphenylamino)quinazoline], the inhibition at 10 µmol/kg worked out at 12%. Same read-out and setting: for `CN(c1ccccc1)c1nc(N(C)c2ccccc2)c2ccccc2n1` [Example 20, 2,4-Bis-(N-methylphenylamino)quinazoline hydrochloride] the value was 72%. For the molecule `COc1cccc2c(Nc3ccccc3C)nc(N(C)c3ccccc3)nc12` [Example 21, 2-(N-methylphenylamino)-4-(2-methylphenylamino)-8-methoxyquinazoline], the inhibition at 10 µmol/kg came out at 37%. Still for that read-out and setting: as for `Cc1ccccc1Nc1nc(N(C)c2ccccc2)nc2ccccc12` [Example 22, 2-(N-methylphenylamino)-4-(2-methylphenylamino)quinazoline hydrochloride], the figure is 27%. On the same count and under the same terms, as for `COc1cccc2c(N(C)c3ccccc3)nc(Nc3ccccc3C)nc12` [Example 24, 4-(N-methylphenylamino)-2-(2-methylphenylamino)-8-methoxyquinazoline], the figure is 97%; as for `Cc1ccccc1CNc1nc(N)nc2ccccc12` [Example 25, 2-amino-4-(2-methylbenzylamino)quinazoline], 24%; as for `Cc1ccccc1Nc1nc(N(C)c2ccccc2)c2ccccc2n1` [Example 26, 2-(2-methylphenylamino)-4-(N-methylphenylamino)quinazoline hydrochloride], 79%.

Regarding `CN(c1ccccc1)c1nc(Nc2ccccc2)nc2ccccc12` [Example 27, 2-phenylamino-4-(N-methylphenylamino)quinazoline hydrochloride], the inhibition at 10 µmol/kg came out at 71%.

Turning to `COc1cccc2c(N(C)c3ccccc3)nc(N)nc12` [Example 29, 2-amino-4-(N-methylphenylamino)-8-methoxyquinazoline hydrochloride], the inhibition at 10 µmol/kg stood at 13%. For `Cc1cc(O)ccc1Nc1nc(N(C)c2ccccc2)c2ccccc2n1` [Example 30, 2-[(4-hydroxy-2-methylphenyl)amino]-4-(N-methylphenylamino) quinazoline hydrochloride], the inhibition at 10 µmol/kg amounted to 23%. On the same count and under the same terms, as for `Cc1ccccc1CNc1nc(N(C)c2ccccc2)c2ccccc2n1` [Example 31, 2-(2-methylbenzylamino)-4-(N-methylphenylamino)quinazoline hydrochloride], the figure is 8%. Still for that read-out and setting: as for `Cc1cc(F)ccc1Nc1nc(N(C)c2ccccc2)c2ccccc2n1` [Example 32, 2-[(2-methyl-4-fluorophenyl)amino]-4-(N-methylphenylamino)quinazoline hydrochloride], the figure is 96%.
